Data set [1] in a line: Inhibition of porcine cytosolic phospholipase A2 alpha using SAPC and 2-dioleoyl-sn-glycerol as substrate incubated for 60 mins by HPLC-UV analysis. On the set-up: species or system Sus scrofa.
Data set [2] can be described thus: Metabolic stability in rat liver S9 fraction assessed as parent compound remaining at 20 uM incubated for 30 mins in presence of NADPH by HPLC-MS analysis. The format is ADME, subcellular. The conditions noted are these: read-out: Stability.
The nature of data set [3]: Metabolic stability in rat liver S9 fraction assessed as parent compound remaining at 5 uM incubated for 30 mins in presence of UDPGA by HPLC-MS analysis. It is filed as ADME, subcellular. To be noted: read-out: Stability.
Data set [4] can be described thus: Partition coefficient,logP of compound by reversed-phase HPLC analysis. The format is physicochemical. To be noted: octanol/water.
For data set [5], the species on record is Sus scrofa. As to the kind of experiment: Inhibition of porcine cytosolic phospholipase A2 alpha using SAPC and 2-dioleoyl-sn-glycerol as substrate at 10 uM incubated for 60 mins by HPLC-UV analysis.
Data set [6] in a line: Drug concentration in C57Bl/6 mouse plasma at 30 mg/kg,po observed after 2 hrs by HPLC-MS analysis. It is filed as ADME, organism-based.
The nature of data set [7]: Permeability across apical to basolateral side in human Caco-2 cells at 10 uM incubated for 2 hrs by HPLC-MS analysis. The format is ADME, cell-based. To be noted: caco-2, 2 h.
Data set [8] is described as follows: Apparent permeability across apical to basolateral side in human Caco-2 cells at 10 uM incubated for 2 hrs by HPLC-MS analysis. It is filed as ADME, cell-based.
A short description of data set [9]: Kinetic solubility of compound in PBS at pH 7.4 incubated for 24 hrs by HPLC-UV analysis. To be noted: read-out: Kinetic_solubility. It is filed as physicochemical.
Data set [10] can be described thus: Thermodynamic solubility of the compound in PBS at pH 7.4 incubated for 20 hrs by HPLC-UV analysis. It is filed as physicochemical. The conditions noted are these: read-out: Therm_solubility.

Values after ≈ are worked out from the molar mass of the structure shown. Where only a bound is given, the exact number is not on record here.

Consider `CC(C)C(=O)c1cn(CC(=O)COc2ccc(Oc3ccccc3)cc2)c2ccc(C(=O)O)cc12`, for which the IC50 in data set [1] turned out to be 12 nM. That is a double-digit nanomolar value.

Compound `CC(C)C(=O)c1cn(CC(=O)COc2ccc(C34CC5CC(CC(C5)C3)C4)cc2)cc1CCC(=O)O` gave an IC50 in data set [1] of 51 nM. Further, the remaining at 0.5 h, 20 µM in [2] stood at 20%. For the same compound, in data set [3], the remaining at 0.5 h, 5 µM is more than 90%. The logP in data set [4] was determined as 5.6.

Take `Cc1noc(-c2cn(CC(=O)C(C)Oc3ccc(Oc4ccc(Cl)cc4)cc3)cc2CCC(=O)O)n1` (stereo not drawn): in data set [1], the IC50 was 38 nM. In addition, the remaining at 0.5 h, 20 µM in [2] is 21%. In addition, the remaining at 0.5 h, 5 µM in data set [3] is more than 90%. Moreover, the logP in [4] is 3.9.

As to `CCCCCCCCc1ccc(OCC(=O)Cn2cc(C(=O)C(C)C)cc2CCCC(=O)O)cc1`, in [1], half-maximal inhibition (IC50) was put at 650 nM. Further, the remaining at 0.5 h, 20 µM in data set [2] stood at 59%. The remaining at 0.5 h, 5 µM in data set [3] was more than 90%.

Take `COc1cccc2c1C(=O)c1c(O)c3c(c(O)c1C2=O)C[C@@](O)(C(C)=O)C[C@@H]3O[C@H]1C[C@H](N)[C@H](O)[C@H](C)O1` [DAUNORUBICIN]: the remaining at 0.5 h, 20 µM in data set [2] is 28%. The remaining at 0.5 h, 5 µM in [3] is 32%.

In [1], `CC(C)C(=O)c1cn(CC(=O)COc2ccc(Oc3ccc(C(F)(F)F)cc3)cc2)cc1CCC(=O)O` yielded an IC50 of 82 nM. The remaining at 0.5 h, 20 µM in data set [2] is less than 5%. In addition, in [3], the remaining at 0.5 h, 5 µM is more than 90%. Besides, the logP in data set [4] was found to be 4.

On to `CCCCCCCCc1ccc(OCC(=O)Cn2c(C)c(CCC(=O)O)c(C(=O)C(C)C)c2C)cc1`, for which, in data set [1], the IC50 is more than 10000 nM. For the same compound, the remaining at 0.5 h, 20 µM in [2] stood at 39%. Moreover, the remaining at 0.5 h, 5 µM in data set [3] was more than 90%. Further, in [5], the inhibition came to 45%.

Consider `CCCCCCCCc1ccc(OCC(O)Cn2cc(CCC(=O)O)c(C(=O)C(C)C)c2)cc1` (stereo not drawn), for which the concentration at 2 h in [6] is 50 ng/mL. The permeability entry in data set [7] was “Permeable”.

Consider `CCCCCCCCc1ccc(OCC(=O)Cn2cc(C(=O)C(C)C)c3cc(C(=O)O)ccc32)cc1`, for which the IC50 in data set [1] came out at 10 nM. This lies in the double-digit nanomolar range.

`CCCCCCCCc1ccc(OCC(=O)Cn2cc(-c3nc(C)no3)c3cc(C(=O)O)ccc32)cc1` had an IC50 in data set [1] of 15 nM. In addition, the remaining at 0.5 h, 20 µM in data set [2] was 30%. The remaining at 0.5 h, 5 µM in [3] was less than 5%.

As to `CCCCCCCCc1ccc(OCC(=O)Cn2cc(CC(=O)O)c(C(=O)C(C)C)c2)cc1`, in data set [1], the IC50 was 40 nM. Further, the remaining at 0.5 h, 20 µM in data set [2] was 25%. Moreover, the remaining at 0.5 h, 5 µM in [3] was more than 90%.

Consider `COc1ccc2c(c1)c(CC(=O)O)c(C)n2C(=O)c1ccc(Cl)cc1` [INDOMETHACIN], for which, in data set [8], the Papp A→B at 2 h, 10 µM is 18 ×10⁻⁶ cm/s.

On to `CCCCCCCCc1ccc(OCC(=O)Cn2cc(CCC(=O)O)c(-c3nc(C)no3)c2)cc1`, for which, in data set [1], the IC50 was determined as 1 nM. Besides, the remaining at 0.5 h, 20 µM in data set [2] worked out at 34%. Also, in data set [3], the remaining at 0.5 h, 5 µM is more than 90%. Also, the logP in [4] stood at 5.9.

For `CC(C)C(=O)c1cn(CC(=O)COc2ccc(-c3ccc(C(F)(F)F)cc3)cc2)cc1CCC(=O)O`, the IC50 in data set [1] came out at 170 nM. Besides, the remaining at 0.5 h, 20 µM in data set [2] is 34%. For the same compound, in data set [3], the remaining at 0.5 h, 5 µM was more than 90%. The compound further showed a lipophilicity (logP) in data set [4] of 4.

In data set [1], `Cc1noc(-c2cn(CC(=O)C(C)Oc3ccc(Oc4ccc(F)cc4)cc3)cc2CCC(=O)O)n1` (stereo not drawn) displayed an IC50 of 32 nM. In addition, the remaining at 0.5 h, 20 µM in data set [2] was found to be 15%. Further, the remaining at 0.5 h, 5 µM in data set [3] is more than 90%. Moreover, the logP in data set [4] was found to be 3.3.

In data set [1], `CCCCCCCCc1ccc(OCC(=O)C(C)n2cc(CCC(=O)O)c(-c3nc(C)no3)c2)cc1` (stereo not drawn) showed an IC50 of 1 nM. The remaining at 0.5 h, 20 µM in data set [2] was determined as 43%. Further, in [3], the remaining at 0.5 h, 5 µM is more than 90%. In addition, the logP in data set [4] amounted to 6.1.

Regarding `CCCCCCCCc1ccc(OCC(=O)Cn2cc(C(=O)C(C)C)cc2CCC(=O)O)cc1`, half-maximal inhibition in data set [1] (IC50) required 460 nM. The remaining at 0.5 h, 20 µM in data set [2] was found to be 60%. The remaining at 0.5 h, 5 µM in data set [3] is more than 90%. Also, in data set [9], the solubility kinetic at 24 h is not below 250 µg/mL. In data set [10], the solubility thermodynamic at 20 h stood at 394 µg/mL (≈ 839 µM). In addition, the concentration at 2 h in data set [6] amounted to 220 ng/mL. In addition, the permeability entry in data set [7] is “Impermeable”.

On to `CC(C)C(=O)c1cn(CC(=O)COc2ccc3c(ccn3-c3ccc(F)cc3)c2)cc1CCC(=O)O`, for which the IC50 in [1] is 310 nM. The remaining at 0.5 h, 20 µM in [2] was less than 5%. Further, in data set [3], the remaining at 0.5 h, 5 µM was more than 90%. Moreover, the logP in [4] stood at 3.3.

As to `CCCCCCCCCCOc1ccc(OCC(=O)COc2ccc(C(=O)O)cc2)cc1`, half-maximal inhibition in data set [1] (IC50) was put at 6.5 nM.

For the compound `CCCCCCCCc1ccc(OCC(=O)Cn2cc(CCC(=O)O)c(C(=O)C(C)C)c2)cc1`, the IC50 in [1] stood at 53 nM. The remaining at 0.5 h, 20 µM in data set [2] was 54%. In addition, in data set [3], the remaining at 0.5 h, 5 µM is more than 90%. In data set [4], the log partition coefficient (logP) was 6.3. For the same compound, in data set [9], the solubility kinetic at 24 h was found to be 174 µg/mL (≈ 371 µM).

`Cc1noc(-c2cn(CC(=O)C(C)Oc3ccc(Oc4ccc(C(F)(F)F)cc4)cc3)cc2CCC(=O)O)n1` (stereo not drawn) showed a 50% inhibitory concentration (IC50) in data set [1] of 16 nM. Moreover, in data set [2], the remaining at 0.5 h, 20 µM was 30%. Besides, the remaining at 0.5 h, 5 µM in data set [3] was more than 90%. Also, the logP in data set [4] is 4.1. In data set [7], the permeability result is given as “Permeable”.

In turn, `CCCCCCCCc1ccc(OCC(=O)Cn2cc(CCCC(=O)O)c(C(=O)C(C)C)c2)cc1` came in with an IC50 in data set [1] of 450 nM. The remaining at 0.5 h, 20 µM in data set [2] is 25%. In data set [3], the remaining at 0.5 h, 5 µM is more than 90%.

In turn, `CCCCCCCCc1ccc(OC(C)C(=O)Cn2cc(CCC(=O)O)c(-c3nc(C)no3)c2)cc1` (stereo not drawn) registered an IC50 in data set [1] of 13 nM. Moreover, the remaining at 0.5 h, 20 µM in data set [2] was found to be 62%. Besides, in data set [3], the remaining at 0.5 h, 5 µM was more than 90%. In data set [4], the logP turned out to be 6.5. For the same compound, the solubility kinetic at 24 h in data set [9] stood at 10 µg/mL (≈ 20.2 µM).
